According to a compilation of properties of binary mixtures (doi:10.1016/j.molliq.2016.01.096):

Test: xn = mol fraction of the nth substance listed
Settings: 100 kPa

CCOS(=O)(=O)[O-].CC[n+]1ccn(C)c1 + CCOCCO
x2 = 0
Settings | speed of sound [m/s]
298.15 K | 1680.8
318.15 K | 1632.4
328.15 K | 1608.9

CCOCCO + CCOS(=O)(=O)[O-].CC[n+]1ccn(C)c1
speed of sound [m/s]
Settings | 298.15 K | 308.15 K | 318.15 K | 328.15 K
x1 = 0.0588 | – | – | 1620.5 | –
x1 = 0.1202 | 1654.9 | 1630.3 | – | 1581.6
x1 = 0.1846 | 1638.2 | 1613.2 | 1588.4 | 1563.9
x1 = 0.2326 | – | 1599.2 | – | –
x1 = 0.3548 | 1586.6 | 1560.3 | 1534.4 | 1509
x1 = 0.4516 | – | 1526.4 | 1499.8 | 1473.7
x1 = 0.5511 | 1516.8 | 1488.9 | 1461.4 | –
x1 = 0.6529 | 1476.3 | 1447.6 | 1419.1 | 1390.8
x1 = 0.741 | – | – | 1379.3 | –
x1 = 0.8273 | – | – | 1336.7 | 1305.7
x1 = 0.8658 | – | – | 1316.4 | –
x1 = 0.9094 | 1356.8 | 1324.7 | 1291.9 | 1259.3
x1 = 0.9512 | 1333.2 | 1300.2 | 1266.4 | 1232.9
x1 = 1 | 1302.8 | 1268.6 | 1233.3 | 1198.8
